According to patent publication US20200338112A1, “METHODS AND MATERIALS FOR TREATING CANCER” (Mayo Foundation for Medical Education and Research, priority 2018, published 2020):
“Also recorded” adds a separate entry of the source. Where a SMILES comes first, the peptide text is derived from it. The star is where a group is joined. Cbz = O=C(OCc1ccccc1)*

How the values were obtained:
[1] = test system: NBS1 protein level in MDA-MB-231 cells; assay: Western blot of NBS1 protein level after MG132 treatment; assay type: cell-based; conditions: MG132 10 μM for six hours; PD-L1 depleted MDA-MB-231 cells; FIG. 3c
Method: FIGS. 3a and 3b contain western blot analyses of BRCA1, NBS1, RAD50, MRE11, and PD-L1 in HCT116 and MDA-MB-231 cells, respectively, that were infected with lentiviral control shRNA or two different shRNAs targeting PD-L1. GAPDH was used as a loading control. FIG. 3c contains a western blot of NBS1 protein levels in MDA-MB-231 cells infected with lentivirus control shRNA or two different shRNAs targeting PD-L1 were treated with DMSO (control) or MG132 (10 μM) for six hours before proteins were harvested. GAPDH and p53 were used as loading and positive control, respectively. […] GAPDH was used for normalization. FIGS. 3e, 3f, and 3g assess HCT116 cells treated with the transcription inhibitor actinomycin D (5 μg/mL). NBS1 mRNA levels were quantified using RT-PCR. Knockdown of PD-L1 in HCT116 decreased the half-life of NBS1 and BRCA1 mRNA, while restoring PD-L1 in the knockdown cells rescued the phenotype (±s.e.m., n=3). GAPDH was used for normalization. […] The change of NBS1 and BRCA1 mRNA level was not due to transcription, since the transcription of BRCA1 was not changed, while the transcription of NBS1 was even increased after PD-L1 was knocked down (±s.e.m., n=3). GAPDH was used for normalization. FIG. 3i contains representative pictures of the subcellular localization of PD-L1. The immunofluorescence was performed in HCT116 cells. […]

cells = assay: Colony formation of cells pretreated with durvalumab, then IR; assay type: cell-based; conditions: durvalumab 10 μg/mL, 24 hours before IR, FIG. 1f
Method: FIG. 1a contains colony formation experiments of HCT116 cells under either ionizing radiation (IR) (0, 2, 4 Gy) or cisplatin (0, 0.5, 1 and 2 μM) treatment. […] FIG. 1b contains knockdown and overexpression efficiency validation of PD-L1 in HCT116 using western blot; glyceraldehyde 3-phosphate dehydrogenase (GAPDH) was used as a loading control. […] The formation of rH2AX foci was sustained in PD-L1 depletion group compared to control group, data is represented as mean±s.e.m for each view. FIG. 1e contains an assessment of wild-type (+/+, n=16), PD-L1 heterozygous (+/−, n=24), and PD-L1 knockout (−/−, n=16) BALB/C mice that were exposed to whole body irradiation (7 Gy). Comparisons between groups were made using the Log-rank test. […] Result were based upon colony formation (±s.e.m., n=3).

Molecule | recovery of NBS1 protein level in PD-L1 depleted cells [1] | sensitization of cells to IR (DNA damage stimulation) (cells)
CC(C)C[C@@H](C=O)NC(=O)[C@H](CC(C)C)NC(=O)[C@H](CC(C)C)NC(=O)OCc1ccccc1 [MG132] (Cbz-Leu-Leu-Leu-aldehyde) | did not recover | 
durvalumab |  | did not sensitize cells to DNA damage stimulation; also recorded: did not sensitize cells to IR
